Results on seven molecules are retold here after patent US5914237A, “Kinase receptor activation assay” (Genentech Incorporated, priority 1995, dated 1999).

Where two headings read alike, the source gives them in different places.

The target in one assay is trkA.IgG. In words: Competitive displacement binding with iodinated NGF to trkA.IgG. Further details: species or system human. How it is done: (§1) The media mentioned above (having the gD.trk.IgG) was used without further purification in binding assays to assess the effects of the presence of the gD flag polypeptide on neurotrophin binding to the gD.trk.IgG polypeptides. DNA encoding untagged trk.IgG polypeptide was run in parallel as a control. trk.IgG and gD tagged trk.IgG containing cell supernatants were prepared as described and used in competitive displacement assays with the appropriate iodinated neurotrophin. NGF is used as ligand for trkA, NT5 is used as ligand for trkB, and NT3 is used as a ligand for trkC.

The subject of assay [1] is p185^HER2 (HER2 receptor). In words: p185HER2 KIRA ELISA (receptor autophosphorylation in MCF-7 cells). Format: cell-based, human. The note with it: for receptor stimulation and autophosphorylation (assay specificity, FIG. 8): HRG up to 3000 pM, other ligands up to 30000 pM. How it is done:
MCF-7 cells (2×10^5) in 100 μl media were added to each well in a flat-bottom-96 well culture plate and cultured overnight at 37° C. in 5% CO2. The following morning the well supernatants were decanted, and the plates were lightly tamped on a paper towel. 50 μl of media containing either experimental samples or the recombinant HRGβ1177-244 standards (3000, 1000, 333, 111, 37, 12, 4, and 0 pM) was then added to each well. The cells were stimulated at 37° C. for 30 min., the well supernatants were decanted, and the plates were once again lightly tamped on a paper towel. To lyse the cells and solubilize the receptors, 100 μl of lysis buffer was added to each well. Lysis buffer consisted of 150 mM NaCl containing 50 mM HEPES (Gibco), 0.5% Triton-X 100 (Gibco), 0.01% thimerosal, 30 KIU/ml aprotinin (ICN Biochemicals, Aurora, Ohio), 1 mM 4-(2-aminoethyl)-benzenesulfonyl fluoride hydrochloride (AEBSF; ICN Biochemicals), 50 μM leupeptin (ICN Biochemicals), and 2 mM sodium orthovanadate (Na3 VO4, Sigma Chemical Co, St. Louis, Mo.), pH 7.5. The plate was then agitated gently on a plate shaker (Bellco Instruments, Vineland, N.J.) for 60 min. at room temperature.
While the cells were being solubilized, an ELISA microtiter plate (Nunc Maxisorp, Inter Med, Denmark) coated overnight at 4° C. with the affinity-purified polyclonal anti-HER2 ECD (1.0 μg/ml in 50 mM carbonate buffer, pH 9.6, 100 μl/well) was decanted, tamped on a paper towel and blocked with 150 μl/well of Block Buffer [PBS containing 0.5% BSA (Intergen Company, Purchase, N.Y.) and 0.01% thimerosal] for 60 min. at room temperature with gentle agitation. After 60 minutes, the anti-HER2 ECD coated plate was washed 6 times with wash buffer (PBS containing 0.05% Tween-20 and 0.01% thimerosal) using an automated plate washer (ScanWasher 300, Skatron Instruments, Inc, Sterling, Va.).
The lysate containing solubilized p185^HER2 from the cell-culture microtiter well was transferred (85 μl/well) to anti-rHER2 ECD coated and blocked ELISA well and was incubated for 2 h at room temperature with gentle agitation. […] The absorbance at 450 nm was read with a reference wavelength of 650 nm (ABS450/650), using a vmax plate reader (Molecular Devices, Palo Alto, Calif.) controlled with a Macintosh Centris 650 (Apple Computers, Cupertino, Calif.) and DeltaSoft software (BioMetallics, Inc, Princeton, N.J.).
The standard curve shown in FIG. 7 was generated by stimulating MCF-7 cells with 3000, 1000, 333, 111, 37, 12, 4, or 0 pM HRGβ1177-244 and presented as pM HRGβ1177-244 vs. mean ABS450/650 ±sd using the DeltaSoft program. Sample concentrations were obtained by interpolation of their absorbance on the standard curve and are expressed in terms of pM HRGβ1177-244 activity.
(In general: An ELISA detects its analyte on a solid surface through an enzyme-linked reagent.)

Another assay has as its target trkC.IgG. In words: Competitive displacement binding with iodinated NT3 to trkC.IgG. Further details: species or system human. How it is done: as §1
The next assay concerns the target trkB.IgG. In words: Competitive displacement binding with iodinated NT5 to trkB.IgG. Set-up: species or system human. How it is done:
as §1

By IC50 is commonly meant the concentration that inhibits the measured activity by half. In the case of “NGF: nerve growth factor prepared by recombinant techniques; ligand for trkA”, the IC50 was 0.0688 ± 0.003 nM on trkA.IgG (gD tagged trkA.IgG, read-out: IC50 with gD) and 0.0684 ± 0.0119 nM on trkA.IgG (trkA.IgG, untagged, read-out: IC50 without gD).

With VEGF, the “receptor stimulation and autophosphorylation (assay specificity, FIG. 8)” value in assay [1] is reported as “Neither insulin-like growth factor-1 (IGF-1), vascular endothelial growth factor (VEGF) nor insulin have any detectable effect”.

As to insulin: insulin, the “receptor stimulation and autophosphorylation (assay specificity, FIG. 8)” value in assay [1] is given as “Neither insulin-like growth factor-1 (IGF-1), vascular endothelial growth factor (VEGF) nor insulin have any detectable effect”.

Molecule EGF: epidermal growth factor showed an OD450/650 in assay [1] (highest concentration tested (100 nM)) of 0.239.

Consider “NT3: neurotrophin 3 prepared by recombinant techniques; ligand for trkC”, for which the IC50 at trkC.IgG (gD tagged trkC.IgG, read-out: IC50 with gD) was found to be 0.0302 ± 0.0007 nM; at trkC.IgG (trkC.IgG, untagged, read-out: IC50 without gD) it was 0.0311 ± 0.0011 nM.

As to IGF-1: insulin-like growth factor-1, in assay [1], the “receptor stimulation and autophosphorylation (assay specificity, FIG. 8)” value is “Neither insulin-like growth factor-1 (IGF-1), vascular endothelial growth factor (VEGF) nor insulin have any detectable effect”.

B1: NT5: neurotrophin 5 prepared by recombinant techniques; ligand for trkB (protein, UniProt P34130 81-210, looked up)
Neurotrophin-4: GVSETAPASRRGELAVCDAVSGWVTDRRTAVDLRGREVEVLGEVPAAGGSPLRQYFFETRCKADNAEEGGPGAGGGGCRGVDRRHWVSECKAKQSYVRALTADAQGRVGWRWIRIDTACVCTLLSRTGRA
Turning to B1, the IC50 at trkB.IgG (gD tagged trkB.IgG, read-out: IC50 with gD) came out at 0.0121 ± 0.018 nM; on trkB.IgG (trkB.IgG, untagged, read-out: IC50 without gD), 0.0311 ± 0.0156 nM.
